Patent publication US8481527B2, “Benzamide derivatives as bradykinin antagonists” (Richter Gedeon Nyrt., priority 2006, dated 2013)
Counter-ions that a name gives are not always drawn. Like-named read-outs stand apart in the source and are kept apart here.

What was measured:
[1] = molecular target: T1, recombinant human B1 receptors (Homo sapiens, UniProt P46663); test: Functional assay: antagonist potency by cytosolic calcium measurement in CHO-B1 cells (agonist LysDABK); format: cell-based
T1 construct: host or cells: CHO (CHO-B1)
T1 sequence (P46663 1-353): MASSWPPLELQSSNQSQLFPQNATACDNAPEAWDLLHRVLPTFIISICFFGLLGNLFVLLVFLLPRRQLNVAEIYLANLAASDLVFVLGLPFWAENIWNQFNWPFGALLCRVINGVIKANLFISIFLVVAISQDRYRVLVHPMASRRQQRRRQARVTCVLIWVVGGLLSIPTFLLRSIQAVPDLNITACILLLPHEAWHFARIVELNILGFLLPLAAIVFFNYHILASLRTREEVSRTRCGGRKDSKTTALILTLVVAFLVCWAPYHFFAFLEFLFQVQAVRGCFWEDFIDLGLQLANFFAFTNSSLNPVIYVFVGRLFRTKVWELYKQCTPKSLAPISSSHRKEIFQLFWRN
Experimental: Assessment of Antagonist Potency at B1 and B2 Receptors In Vitro by Measurement of Cytosolic Calcium Ion Concentration with a Plate Reader Fluorimeter in Cells Expressing Recombinant Human B1 or B2 Receptors
Chinese hamster ovary (CHO) cells stably expressing recombinant human B1 (CHO-B1, Euroscreen) or B2 (CHO-B2, Perkin-Elmer) receptors were cultured in Dulbecco's Modified Eagle's Medium (DMEM) containing 10% Fetal Calf Serum (FCS), 100 U/ml penicillin, 0.1 mg/ml streptomycin, 0.25 μg/ml amphotericin B, 1% Minimum Essential Medium Eagle (MEM), non essential amino acid solution, 600 μg/ml G418, 1% pyruvate (for the B2 cell line). Cells were kept at 37° C. in a humidified incubator in an atmosphere of 5% CO2/95% air and were passaged 1:4 three times a week. Cells were plated at 1.5-2.5×10^4 cell/well on standard 96-well microplates, measurements of cytosolic calcium ion concentration ([Ca^2+]i) were carried out 1-2 days after cell plating.
Measurements of [Ca^2+]i were carried out on CHO-B1 and CHO-B2 cells stably expressing human B1 and B2 receptors, respectively. Cells were grown in standard 96-well microplates and before the measurement were loaded with a fluorescent Ca^2+-sensitive dye, fluo-4/AM (2 μM): after removing the culture medium the dye was added to the cells (dissolved in assay buffer: 145 mM NaCl, 5 mM KCl, 2 mM MgCl2, 2 mM CaCl2, 10 mM HEPES, 20 mM D-glucose, 2 mM probenecid, 100 μl/well) and cells were incubated at 37° C. in a humidified incubator in an atmosphere of 5% CO2/95% air for 40-120 min. To stop dye loading cells were washed twice with assay buffer. After washing, various concentrations of the test compounds (diluted in extracellular medium from a DMSO stock solution, final DMSO concentration was <0.1%) or buffer were added to each well depending on the experimental setup. After incubation at 37° C. for 20-25 min. baseline and agonist-evoked changes of [Ca^2+]i were measured column by column with a plate reader fluorimeter (Fluoroskan Ascent, Labsystems). Excitation and detection of emission was carried out from the bottom of the plate. Filters used for Fluo-4: excitation filter—485 nm, emission filter—538 nm. The whole measurement process was performed at 37° C. and was controlled by custom software. Inhibitory potency of the test compounds was assessed by measuring the reduction in the agonist-evoked [Ca^2+]i-elevation in the presence of different concentrations of the compounds. The agonists were LysDABK for CHO-B1, and bradykinin for CHO-B2 cells. Agonists were applied at an EC80 concentration, the EC80-values were derived from daily determined dose-response curves. Fluorescence data were expressed as ΔF/F (fluorescence change normalized to baseline). All treatments on a single plate were measured in multiple wells. Data from all wells with the same treatment were averaged and the average values were used for analysis. Inhibitory potency of a compound at a single concentration point was expressed as percent inhibition of the control agonist response. Sigmoidal concentration-inhibition curves were fitted to the data (derived from at least three independent experiments) and IC50-values were determined as the concentration that produces half of the maximal inhibition caused by the compound.

[2] = molecular target: T2, human recombinant bradykinin B1 receptor (Homo sapiens, UniProt P46663); test: Human recombinant bradykinin B1 receptor binding
T2 construct: purchased Euroscreen ES-091; host or cells: CHO cells
T2 sequence (P46663 1-353): T1 sequence (P46663 1-353)
Experimental: Receptor Binding Assays 1. Human Recombinant Bradykinin B1 Receptor Binding
Binding assays were carried out on human recombinant bradykinin) receptors (expressed in CHO cells) according to the Euroscreen Technical Data Sheet (Cat.No.:ES-091). 20 μg protein/tube was incubated with [3,4-prolyl-3,4-^3H(N)]-[Des-Arg^10] Kallidin as radioligand. Non specific binding was determined in the presence of 10 μM Lys-des-Arg^9-Bradykinin. The final incubation volume was 250 μl. Samples were incubated for 15 min. at 25° C. then were rapidly vacuum filtered through GF/B filters presoaked for at least 1 h in 0.5% PEI. Radioactivity was determined by liquid scintillation spectroscopy.

[3] = CHO-B1 cells, LysDABK at EC80, fluo-4 [Ca2+]i, read-out: B1 func.
[4] = CHO cell membranes, [3H]-[Des-Arg10] Kallidin radioligand, read-out: B1 binding
[5] = reference compounds, functional test, read-out: IC50
[6] = reference compounds, binding test, read-out: Ki

Structure (SMILES)	IC50 [1, 3] [nM]	Ki [2, 4] [nM]	IC50 [1, 5] [nM]	Ki [2, 6] [nM]
O=C(NCC(=O)N1CCNCC1)c1ccc(S(=O)(=O)Nc2ccccc2Oc2ccccc2)cc1 [Example 11.2, N-(2-Oxo-2-piperazin-1-yl-ethyl)-4-(2-phenoxy-phenylsulfamoyl)-benzamide hyrochloride]	< 20	20 to 100	–	–
NC1CCN(C(=O)CNC(=O)c2ccc(S(=O)(=O)Nc3ccccc3Oc3ccccc3)cc2)CC1 [Example 11.3, N-[2-(4-Amino-piperidin-1-yl)-2-oxo-ethyl]-4-(2-phenoxy-phenylsulfamoyl)-benzamide hydrochloride]	< 20	< 20	–	–
O=C(NCC(=O)N1CCNCC1)c1ccc(S(=O)(=O)Nc2ccccc2Oc2ccc(Cl)cc2Cl)cc1 [Example 11.4, 4-[2-(2,4-Dichloro-phenoxy)-phenylsulfamoyl]-N-(2-oxo-2-piperazin-1-yl-ethyl)-benzamide hydrochloride]	< 20	< 20	–	–
O=C(NCC(=O)N1CCCNCC1)c1ccc(S(=O)(=O)Nc2ccccc2Oc2ccc(Cl)cc2Cl)cc1 [Example 11.5, N-(2-[1,4]Diazepan-1-yl-2-oxo-ethyl)-4-[2-(2,4-dichloro-phenoxy)-phenylsulfamoyl]-benzamide hydrochloride]	< 20	< 20	–	–
O=C(NCC(=O)N1CCCNCC1)c1ccc(S(=O)(=O)Nc2ccccc2C(=O)c2ccccc2)cc1 [Example 11.6, 4-(2-Benzoyl-phenylsulfamoyl)-N-(2-[1,4]diazepan-1-yl-2-oxo-ethyl)-benzamide hydrochloride]	< 20	< 20	–	–
O=C(NCC(=O)N1CCNCC1)c1ccc(S(=O)(=O)Nc2ccccc2C(=O)c2ccccc2)cc1 [Example 11.7, 4-(2-Benzoyl-phenylsulfamoyl)-N-(2-oxo-2-piperazin-1-yl-ethyl)-benzamide hydrochloride]	< 20	< 20	–	–
CN1CCN(C(=O)C2CCN(S(=O)(=O)c3ccc(NCC(c4ccccc4)c4ccccc4)c(C(=O)N4CCOCC4)c3)CC2)CC1 [NVP-SAA164, 4-{2-[(2,2-diphenyl-ethyl)-amino]-5-{-4-[4-[(4-methyl-1-piperazinyl)-carbonyl]-1-piperidinyl]-sulfonyl}-benzoyl}-morfoline, reference compound]	–	–	33	8
CCCN1C(=O)[C@H](NC(=O)Nc2ccc(N3CCC(N4CCCCC4)CC3)cc2)N=C(c2ccc(C)cc2)c2ccccc21 [compound 3, N-[4-(,4′-bipiperidin)-1′-ylphenyl]-N′-[(3R)-2,3-dihydro-5-(4-methyl-phenyl)-2-oxo-1-propyl-1H-1,4-benzodiazepin-3-yl]-urea, reference compound]	–	–	64.5	13.4
